Our source for the LogP and chromatographic logP values is patent US12534456B2, “Heterocyclyl pyridines as novel fungicides” (Bayer Aktiengesellschaft, priority 2020, dated 2026).

Structures are written as SMILES.

The first data set in a line: physchem. The format is physicochemical.
Conditions: not given
As to the method: Measurement of Log P values as provided herein was performed according to EEC directive 79/831 Annex V.A8 by HPLC (High Performance Liquid Chromatography) on reversed phase columns with the following methods: • ^[a]
If more than one Log P value is available within the same method, all the values are given and separated by “+”.
Lambda-max-values were determined using UV-spectra from 200 nm to 400 nm and the peak values of the chromatographic signals
With `CC1ON=C(c2cc(Cl)ncc2Oc2cccc(C(F)(F)F)c2)NC1c1ccc(Cl)cc1` (mixture of isomers) [Compound I-042], the LogP was 4.19^[a].

On to `FC1ON=C(c2cc(Cl)ncc2Oc2cccc(C(F)(F)F)c2)NC1c1ccc(Cl)cc1` (mixture of isomers) [Compound I-051], for which the LogP is 3.33^[a]. Still for that read-out and setting: to `CC(=O)OC1ON=C(c2cc(Cl)ncc2Oc2cccc(C(F)(F)F)c2)NC1c1ccc(Cl)cc1` (mixture of isomers) [Compound I-073] belongs 4.08^[a]; to `CCC1ON=C(c2cc(Cl)ncc2Oc2cccc(C(F)(F)F)c2)NC1c1ccc(OC)cc1` (mixture of isomers) [Compound I-122], 4.07^[a]. With `FC(F)(F)c1cccc(Oc2cnc(Cl)cc2C2=NOC(C3CC3)C(c3ccc(Cl)cc3)N2)c1` (mixture of isomers) [Compound I-139], the LogP was 4.47^[a]. The same measure, in the same setting: to `Cc1ccc(CC2CON=C(c3cc(Cl)ncc3Oc3cccc(C4CC4F)c3)N2)c(C)c1` (mixture of isomers) [Compound I-143] belongs 4.38^[a]. For the compound `Cc1ccc(CC2CON=C(c3cc(Cl)ncc3Oc3cccc(Cl)c3)N2)c(C)c1` (racemic) [Compound I-002], the LogP was 4.51^[a]. Still for that read-out and setting: to `Cc1ccc(CC2CON=C(c3cc(Cl)ncc3Oc3cccc(C(F)F)c3)N2)c(C)c1` (racemic) [Compound I-003] belongs 4.08^[a]. For the compound `FC(F)c1cccc(Oc2cnc(Cl)cc2C2=NOCC(Cc3ccc(Br)cc3Cl)N2)c1` (racemic) [Compound I-004], the LogP is 4.32^[a]. For `COc1cccc(Oc2cnc(Cl)cc2C2=NOCC(Cc3ccc(C)cc3C)N2)c1` (racemic) [Compound I-005], the LogP was 4.18^[a].

For the compound `COc1cccc(Oc2cnc(Cl)cc2C2=NOCC(Cc3ccc(Br)cc3Cl)N2)c1` (racemic) [Compound I-006], the LogP is 4.37^[a]. In the case of `Cc1cccc(Oc2cnc(Cl)cc2C2=NOCC(Cc3ccc(C)cc3C)N2)c1` (racemic) [Compound I-007], the LogP was 4.55^[a]. For `Cc1cccc(Oc2cnc(C)cc2C2=NOCC(Cc3ccc(C)cc3C)N2)c1` (racemic) [Compound I-008], the LogP was 3.61^[a].

On to `COc1cccc(Oc2cnc(C)cc2C2=NOCC(Cc3ccc(C)cc3C)N2)c1` (racemic) [Compound I-009], for which the LogP was 3.29^[a].

For the compound `Cc1ccc(CC2CON=C(c3cc(C)ncc3Oc3cccc(C(F)F)c3)N2)c(C)c1` (racemic) [Compound I-010], the LogP was 3.41^[a]. For `Cc1ccc(CC2CON=C(c3cc(Cl)ncc3Oc3cccc(C4CC4)c3)N2)c(C)c1` (racemic) [Compound I-013], the LogP is 4.89^[a].

Turning to `Cc1ccc(CC2CON=C(c3cc(Cl)ncc3Oc3cccc(C4CC4)c3F)N2)c(C)c1` (racemic) [Compound I-014], the LogP was 4.89^[a]. As for `Cc1ccc(CC2CON=C(c3cc(C)ncc3Oc3cccc(C4CC4)c3)N2)c(C)c1` (racemic) [Compound I-015], the LogP was 3.94^[a]. With `Cc1ccc(CC2CON=C(c3cc(C4CC4)ncc3Oc3cccc(C4CC4)c3)N2)c(C)c1` (racemic) [Compound I-016], the LogP is 4.87^[a]. With `Cc1ccc(CC2CON=C(c3cc(C)ncc3Oc3cccc(C4CC4)c3F)N2)c(C)c1` (racemic) [Compound I-017], the LogP is 4.03^[a]. On to `Cc1ccc(CC2CON=C(c3cc(C)ncc3Oc3cccc(Cl)c3)N2)c(C)c1` (racemic) [Compound I-018], for which the LogP was 3.76^[a]. Still for that read-out and setting: then `Fc1c(Oc2cnc(Cl)cc2C2=NOCC(Cc3ccc(Br)cc3Cl)N2)cccc1C1CC1` (racemic) [Compound I-023], with 5.11^[a]; and `Fc1c(Oc2cnc(Cl)cc2C2=NOCC(Cc3ccc(Cl)cc3Cl)N2)cccc1C1CC1` (racemic) [Compound I-024], with 4.98^[a].

As to `Clc1ccc(CC2CON=C(c3cc(Cl)ncc3Oc3cccc(C4CC4)c3)N2)c(Cl)c1` (racemic) [Compound I-025], the LogP was 4.98^[a]. Same read-out and setting: to `Clc1cc(C2=NOCC(Cc3ccc(Br)cc3Cl)N2)c(Oc2cccc(C3CC3)c2)cn1` (racemic) [Compound I-026] belongs 5.16^[a]. Same read-out and setting: then `CCc1cc(C2=NOCC(Cc3ccc(C)cc3C)N2)c(Oc2cccc(C3CC3)c2)cn1` (racemic) [Compound I-027], with 4.40^[a]. On to `Cc1cc(C2=NOCC(Cc3ccc(Cl)cc3Cl)N2)c(Oc2cccc(C3CC3)c2)cn1` (racemic) [Compound I-028], for which the LogP was 4.08^[a]. For the compound `Cc1ccc(CC2CON=C(c3cc(C)ncc3Oc3cccc(C4CC4)c3)N2)c(Cl)c1` (racemic) [Compound I-030], the LogP is 3.98^[a]. Regarding `Cc1ccc(CC2CON=C(c3cc(C)ncc3Oc3cccc(C4CC4)c3F)N2)c(Cl)c1` (racemic) [Compound I-031], the LogP is 4.08^[a].

For `Cc1ccc(CC2CON=C(c3cc(Cl)ncc3Oc3cccc(C)c3F)N2)c(C)c1` (racemic) [Compound I-032], the LogP is 4.59^[a]. On the same count and under the same terms, then `Cc1ccc(CC2CON=C(c3cc(C(F)(F)F)ncc3Oc3cccc(C4CC4)c3F)N2)c(C)c1` (racemic) [Compound I-033], with 5.20^[a]; and `Cc1ccc(CC2CON=C(c3cc(Cl)ncc3Oc3cccc(OC(F)F)c3F)N2)c(C)c1` (racemic) [Compound I-035], with 4.23^[a]. In the case of `Cc1ccc(CC2CON=C(c3cc(Cl)ncc3Oc3ccc4c(c3)CC4)N2)c(C)c1` (racemic) [Compound I-036], the LogP was 4.88^[a]. Still for that read-out and setting: to `Cn1cc(-c2ccc(CC3CON=C(c4cc(Cl)ncc4Oc4cccc(C(F)F)c4)N3)c(Cl)c2)cn1` (racemic) [Compound I-037] belongs 3.37^[a]; to `CC(=O)c1ccc(CC2CON=C(c3cc(Cl)ncc3Oc3cccc(C(F)F)c3)N2)c(Cl)c1` (racemic) [Compound I-038], 3.47^[a]. As for `C=Cc1ccc(CC2CON=C(c3cc(Cl)ncc3Oc3cccc(C(F)F)c3)N2)c(Cl)c1` (racemic) [Compound I-040], the LogP was 4.29^[a].

`CC1(C)ON=C(c2cc(Cl)ncc2Oc2cccc(C(F)(F)F)c2)NC1c1ccc(F)cc1F` (racemic) [Compound I-043]: the LogP was 4.30^[a]. Still for that read-out and setting: to `FC(F)(F)c1cccc(Oc2cnc(Cl)cc2C2=NOCC(c3ccc4c(c3)CCO4)N2)c1` (racemic) [Compound I-044] belongs 3.57^[a]; to `COc1ccc(C2CON=C(c3cc(Cl)ncc3Oc3cccc(C(F)(F)F)c3)N2)cc1` (racemic) [Compound I-045], 3.60^[a]. Still for that read-out and setting: then `FC(F)(F)c1cccc(Oc2cnc(Cl)cc2C2=NOCC(C3(c4ccccc4)CC3)N2)c1` (racemic) [Compound I-046], with 4.21^[a].

Consider `Cc1ccc(C2CON=C(c3cc(Cl)ncc3Oc3cccc(C(F)(F)F)c3)N2)cc1` (racemic) [Compound I-048], for which the LogP was 3.96^[a]. On to `Cc1ccc(C2CON=C(c3cc(Cl)ncc3Oc3cccc(C(F)(F)F)c3)N2)cc1C` (racemic) [Compound I-049], for which the LogP was 4.24^[a].

The same data set, now with this note: Table 7, compounds of formula (3); method [a].
A word on the chromatographic logP: it is a lipophilicity value derived from retention on a column. A high value points to a more lipophilic compound. As to `Cc1ccc(CC(CON2C(=O)c3ccccc3C2=O)NC(=O)c2cc(Cl)ncc2Oc2cccc(C(F)(F)F)c2)c(C)c1` (racemic) [Compound 3-01, 2-chloro-N-{(2RS)-1-(2,4-dimethylphenyl)-3-[(1,3-dioxo-1,3-dihydro-2H-isoindol-2-yl)oxy]propan-2-yl}-5-[3-(trifluoromethyl)phenoxy]isonicotinamide], the chromatographic logP worked out at 5.14.

The same data set, now with this note: Table 9, compounds of formula (4a)/(4b); method [a].
Turning to `Cc1ccc(CC(CON)NC(=O)c2cc(Cl)ncc2Oc2cccc(C(F)(F)F)c2)c(C)c1` (racemic) [Compound 4-01, N-[(2RS)-1-(aminooxy)-3-(2,4-dimethylphenyl)propan-2-yl]-2-chloro-5-[3-(trifluoromethyl)phenoxy]isonicotinamide], the chromatographic logP amounted to 3.48.

The data set is the same for the next values; noted with them: Table 11, compounds of formula (6); method [a]: LC-UV, acidic range, 0.1% formic acid in water and acetonitrile.
`Cc1ccc(CC(CON)NC(=O)c2cc(C(F)(F)F)ncc2Br)c(C)c1` (racemic) [Compound 6-03, N-[(2RS)-1-(aminooxy)-3-(2,4-dimethylphenyl)propan-2-yl]-5-bromo-2-(trifluoromethyl)isonicotinamide] had a chromatographic logP of 2.51. Consider `Cc1ccc(CC(CON2C(=O)c3ccccc3C2=O)NC(=O)c2cc(C(F)(F)F)ncc2Br)c(C)c1` (racemic) [Compound 6-04, 5-bromo-N-{(2RS)-1-(2,4-dimethylphenyl)-3-[(1,3-dioxo-1,3-dihydro-2H-isoindol-2-yl)oxy]propan-2-yl}-2-(trifluoromethyl)isonicotinamide], for which the chromatographic logP came out at 4.4.

The data set is the same for the next values; noted with them: Table 13, compounds of formula (7); method [a].
In turn, `Cc1ccc(CC2CON=C(c3ccncc3Br)N2)cc1` (racemic) [Compound 7-02, (5RS)-3-(3-bromopyridin-4-yl)-5-(4-methylbenzyl)-5,6-dihydro-4H-1,2,4-oxadiazine] gave a chromatographic logP of 2.31.

With `Cc1ccc(CC2CON=C(c3cc(C(F)(F)F)ncc3Br)N2)c(C)c1` (racemic) [Compound 7-03, (5RS)-3-[5-bromo-2-(trifluoromethyl)pyridin-4-yl]-5-(2,4-dimethylbenzyl)-5,6-dihydro-4H-1,2,4-oxadiazine], the chromatographic logP came to 2.43.

Still in this data set, the particulars now being: Table 22, compounds of formula (17); method [a].
In turn, `Cc1ccc(CC(CCl)NC(=O)c2ccncc2Br)cc1` (racemic) [Compound 17-01, 3-bromo-N-[(2RS)-1-chloro-3-(4-methylphenyl)propan-2-yl]isonicotinamide] displayed a chromatographic logP of 2.8.

Still in this data set, the particulars now being: Table 24, compounds of formula (18); method [a].
In turn, `Cc1ccc(CC(CCl)NC(=NO)c2ccncc2Br)cc1` (racemic) [Compound 18-01, 3-bromo-N-[(2RS)-1-chloro-3-(4-methylphenyl)propan-2-yl]-N′-hydroxypyridine-4-carboximidamide] had a chromatographic logP of 2.78.
